Source: patent US9944927B2, “Therapeutic applications of p53 isoforms in regenerative medicine, aging and cancer” (The United States of America as Represented by the …, priority 2007, dated 2018)

Tests used:
Format in all cases: cell-based, human
hTERT/NHF cells = assay: Nutlin-3A-induced senescence, SA-β-gal assay; conditions: 10 μM Nutlin-3A for 72 h
[1] = tested on: MRC-5 and WI-38 fibroblasts; assay: cellular replicative lifespan (cumulative population doublings)
Procedure: (§1) For cell proliferation assay, 2.4×10^5 cells per well were plated into 12-well plates. These cells were collected and counted daily for a week using a hematocytometer. The experiments were performed at least twice and data at each time point were in triplicate. For examining cellular replicative lifespan, the number of cells was counted at each passage, and the number of population doublings (PDL) achieved between passages was determined by log2 (number of cells obtained/number of cells inoculated) (Michishita, E. et al., Mol. Biol. Cell 16:4623 (2005); Pereira-Smith, O. M. et al., Somatic Cell Genet. 7:411 (1981)). […] The incorporated BrdU was detected using an anti-BrdU monoclonal antibody (Amersham Biosciences) and observed with a fluorescent microscope. […]
as §1, with “The experiments were performed at least twice and data at each time point were in triplicate.” left out, “inoculated)^29.” for “inoculated) (Michishita, E. et al., Mol. Biol. Cell 16:4623 (2005); Pereira-Smith, O. M. et al., Somatic Cell Genet. 7:411 (1981)).”

miR-34a = assay: real-time qRT-PCR of miR-34a expression; conditions: for miR-34a expression at Δ133p53 knockdown-induced senescence: siRNA-transfected MRC-5 and WI-38
Procedure: (§2) RNA samples were prepared by using Trizol (Invitrogen). Reverse transcriptase reactions were performed using TagMan miRNA reverse transcription kit (Applied Biosystems, cat. no. 4366596) and a miR-34a-specific primer. The TagMan miRNA assay kit for miR-34a (Applied Biosystems, cat. no. 4373278) was used according to the supplier's protocol. Real-time PCR reactions were performed in triplicate. RNU66 (Applied Biosystems, cat. no. 4373382) was used as a control for quantification. Based on Ct (cycle threshold) values from miR-34a and RNU66 detections, normalized miR-34a expression was calculated by using the […] method according to the supplier's protocol (protocol no. 4310255B and User Bulletin no. 4303859B found on the world wide web at appliedbiosystems.com/index.cfm).
as §2, with “TaqMan microRNA” for “TagMan miRNA”

[2] = tested on: MRC-5 and WI-38 fibroblasts; assay: cellular senescence: senescent growth arrest, SA-β-gal staining; conditions: siRNA-transfected early-passage MRC-5 and WI-38, day 7
PAI-1 = assay: real-time qRT-PCR of PAI-1 mRNA; conditions: siRNA-transfected early-passage WI-38, day 7
Excerpt: For quantitative measurement of PAI-1 mRNA, the SYBR Green PCR Master Mix (Applied Biosystems) was used with the following primers: 5′-CTC CTG GTT CTG CCC AAG T-3′ (SEQ ID NO:15) and 5′-CAGGTTCTCTAGGGGCTTCC-3′ (SEQ ID NO:16) for PAI-1; and 5′-TTC TGG CCT GGA GGC TAT C-3′ (SEQ ID NO:17) and 5′-TCAGGAAATTTGACTTTCCATTC-3′ (SEQ ID NO:18) for β-2 microglobulin as an internal control. For IL-8 and IL-8R, the Taqman Universal PCR Master Mix (Applied Biosystems) was used with the following sets of probe and primers purchased from Applied Biosystems: IL-8 (catalog #4331182, Hs00174103_m1); IL-8R (catalog #4331182, Hs001174304_m1); and 18S endogenous control (catalog #4319413).

caspase-3 and PARP = assay: apoptosis immunoblot of caspase-3 and PARP; conditions: for cleaved caspase-3 or PARP (apoptosis): siRNA-transfected MRC-5 and WI-38
Procedure: Cells or tissues were lysed in RIPA buffer [10 mM Tris-HCl, pH 7.5, 150 mM NaCl, 0.1% SDS, 0.1% sodium deoxycholate, 1 mM EDTA, 1% NP-40, complete protease inhibitors (Roche, Indianapolis, Ind.), phoshatase inhibitor cocktail 1 and 2 (Sigma-Aldrich)]. SDS-PAGE, transfer to nitrocellulose or PVDF membranes (Bio-Rad, Hercules, Calif.), incubation with antibodies, and signal detection followed the standard procedures using ECL detection (Amersham Biosciences, Piscataway, N.J.) or SuperSignal West Dura Extended Duration system (Pierce Biotechnology, Rockford, Ill.). The quantitative analysis of the immunoblot data was performed using the ImageJ 1.40 g software (on the world wide web at rsb.info.nih.gov/ij/).
A polyclonal antibody specifically recognizing Δ133p53 (MAP4) was raised at Moravian Biotechnology (Brno, Czech Republic) in rabbits injected with a mixture of peptides, MFCQLAKTC (SEQ ID NO:13) and FCQLAKTCP (SEQ ID NO: 14), which were synthesized as Multiple Antigenic Peptide by Dr. G. Bloomberg (University of Bristol, Bristol, UK). The other primary antibodies used were: TLQ40^5 for p53β; CM1^5, DO-12 (Millipore, Billerica, Mass.) and DO-1 (Santa Cruz Biotechnology, Santa Cruz, Calif.) for p53; EA10 (Carbiochem, San Diego, Calif.) for p21^WAF1; SMP14 (Santa Cruz Biotechnology) for MDM2; 8G10 (Cell Signaling Technology, Danvers, Mass.) for caspase-3; M2 monoclonal antibody (Sigma-Aldrich) for FLAG tag; AC-15 (Sigma-Aldrich) for β-actin; MAB3450 (Chemicon International, Temecula, Calif.) for HP1-γ; anti-phospho-p53 (Ser15) (Cell Signaling Technology); anti-PARP (Cell Signaling Technology); FITC-conjugated anti-CD8 (BD Biosciences, Franklin Lakes, N.J.); APC-conjugated anti-CD28 (BD Biosciences); and PE-conjugated anti-CD57 (Abcam, Cambridge, Mass.). Horseradish peroxidase-conjugated goat anti-mouse or anti-rabbit antibodies (Santa Cruz Biotechnology) were used as secondary antibodies in immunoblots.

p21^WAF1 and MDM2 = assay: immunoblot of p53 transcriptional targets p21WAF1 and MDM2; conditions: siRNA-transfected early-passage MRC-5 and WI-38, day 7
Procedure: Cells were lysed in RIPA buffer [10 mM Tris-HCl, pH 7.5, 150 mM NaCl, 0.1% SDS, 0.1% sodium deoxycholate, 1 mM EDTA, 1% NP-40, complete protease inhibitors (Roche), phosphatase inhibitor cocktail 1 and 2 (Sigma)]. Lysates were separated by SDS-PAGE and transferred to nitrocellulose membranes (BIO-RAD) Immunoblot analysis was accomplished according to standard procedures using ECL detection (Amersham Bioscience) or SuperSignal West Dura Extended Duration system (PIERCE).
A polyclonal antibody specifically recognizing Δ133p53 (MAP4) was raised at Moravian Biotechnology (Brno, Czech Republic) in rabbits injected with a mixture of peptides MFCQLAKTC (SEQ ID NO:13) and FCQLAKTCP (SEQ ID NO:14), which were synthesized as Multiple Antigenic Peptide by G. Bloomberg (University of Bristol, Bristol, UK). […]
Cells or tissues were lysed in RIPA buffer [10 mM Tris-HCl, pH 7.5, 150 mM NaCl, 0.1% SDS, 0.1% sodium deoxycholate, 1 mM EDTA, 1% NP-40, complete protease inhibitors (Roche, Indianapolis, Ind.), phoshatase inhibitor cocktail 1 and 2 (Sigma-Aldrich)]. […] The quantitative analysis of the immunoblot data was performed using the ImageJ 1.40 g software (on the world wide web at rsb.info.nih.gov/ij/). […]

[3] = tested on: MRC-5 and WI-38 fibroblasts; assay: BrdU incorporation assay; conditions: siRNA-transfected early-passage MRC-5 and WI-38, day 7; 10 μM BrdU 24 h
Procedure: as §1
as §1, with “The experiments were performed at least twice and data at each time point were in triplicate.” left out, “inoculated)^29.” for “inoculated) (Michishita, E. et al., Mol. Biol. Cell 16:4623 (2005); Pereira-Smith, O. M. et al., Somatic Cell Genet. 7:411 (1981)).”

Compound | SA-β-gal activity [2] | PAI-1 expression (PAI-1) | cleaved caspase-3 or PARP (apoptosis) (caspase-3 and PARP) | p21^WAF1 expression (p21^WAF1 and MDM2) | BrdU incorporation [3] | miR-34a expression at Δ133p53 knockdown-induced senescence (miR-34a) | other results
5′-AACAACCAGCUAAGACACUGCCA-3′ (antisense AACAACCAGCUAAGACACUGCCA; all 2'-O-methyl, backbone not given here) [antisense miR-34a] |  |  |  |  |  |  | inhibition of Nutlin-3A-induced senescence (hTERT/NHF cells): approximately 50%; replicative lifespan ([1]; late-passage MRC-5, antisense 40 nM transfected every 4 days): extended the replicative lifespan; extension of replicative lifespan ([1]; late-passage MRC-5 at passage 58, antisense transfected every 4 days): approximately five; miR-34a expression after antisense transfection (miR-34a; late-passage MRC-5, antisense 40 nM): downregulation of miR-34a expression was confirmed
5′-CUU GUG CCC UGA CUU UCA A[dT][dT]-3′ [Δ133si-2] | induction of SA-β-gal activity | upregulation | No cleaved caspase-3 or PARP was observed | upregulation of p21^WAF1 | attenuation of BrdU incorporation | not upregulated | 
5′-UGUUCACUUGUGCCCUGACUUUCAA-3′ [Δ133si-1] | induction of SA-β-gal activity | upregulation | No cleaved caspase-3 or PARP was observed | upregulation of p21^WAF1 | attenuation of BrdU incorporation | not upregulated | 
COc1ccc(C2=N[C@@H](c3ccc(Cl)cc3)[C@@H](c3ccc(Cl)cc3)N2C(=O)N2CCNC(=O)C2)c(OC(C)C)c1 [Nutlin-3a, reference compound] |  |  |  |  |  |  | miR-34a expression (miR-34a; hTERT/NHF cells, p53 shRNA, or 10 μM Nutlin-3a for 36 h): induced
COc1cccc2c1C(=O)c1c(O)c3c(c(O)c1C2=O)C[C@@](O)(C(=O)CO)C[C@@H]3O[C@H]1C[C@H](N)[C@H](O)[C@H](C)O1 [doxorubicin, reference compound] |  |  |  |  |  |  | apoptosis (caspase-3, PARP immunoblot) (caspase-3 and PARP; RKO cells, positive control): showing apoptosis
